How the values were obtained:
[1] = (§1) The drug is tested on WLS-220 corresponding to human gut metagenome with ENA study accession number: PRJEB37062 and ENA sample accession number: ERS12561769 for biotransformation under anaerobic condition. The drug concentrations were measured over 9 timepoints collected between 0 and 24 hours of incubation by liquid-chromatography-coupled mass spectrometry (LC–MS); conditions: 2 µM
[2] = as §1, with “Z-016” for “WLS-220”, “mouse” for “human”, “ERS12561815” for “ERS12561769”; conditions: 2 µM
[3] = as §1, with “Z-004” for “WLS-220”, “to” for “to human gut”, “ERS12561804” for “ERS12561769”; conditions: 2 µM
[4] = as §1, with “WLS-039” for “WLS-220”, “ERS12561746” for “ERS12561769”; conditions: 2 µM
[5] = as §1, with “Z-018” for “WLS-220”, “pig” for “human”, “ERS12561817” for “ERS12561769”; conditions: 2 µM
[6] = as §1, with “WLS-052” for “WLS-220”, “ERS12561747” for “ERS12561769”; conditions: 2 µM
[7] = as §1, with “WLS-310” for “WLS-220”, “ERS12561785” for “ERS12561769”; conditions: 2 µM
[8] = human gut metagenome, 24 h, 2 µM
[9] = as §1, with “WLS-007” for “WLS-220”, “ERS12561742” for “ERS12561769”; conditions: 2 µM
[10] = as §1, with “WLS-077” for “WLS-220”, “ERS12561750” for “ERS12561769”; conditions: 2 µM
[11] = human gut metagenome, 24 h, 2 µM; remark: listed apart in the source
[12] = as §1, with “Z-027” for “WLS-220”, “to” for “to human gut”, “ERS12561826” for “ERS12561769”; conditions: 2 µM
[13] = human gut metagenome, 24 h, 2 µM; remark: listed apart in the source
[14] = human gut metagenome, 24 h, 2 µM; remark: listed apart in the source
[15] = as §1, with “WLS-082” for “WLS-220”, “ERS12561751” for “ERS12561769”; conditions: 2 µM
[16] = human gut metagenome, 24 h, 2 µM; remark: listed apart in the source
[17] = as §1, with “Z-019” for “WLS-220”, “rat” for “human”, “ERS12561818” for “ERS12561769”; conditions: 2 µM
[18] = human gut metagenome, 24 h, 2 µM; remark: listed apart in the source
[19] = human gut metagenome, 24 h, 2 µM; remark: listed apart in the source
[20] = human gut metagenome, 24 h, 2 µM; remark: listed apart in the source
Also: call rule not given here.

| Bacterial Biotransformation [1] | Bacterial Biotransformation [2] | Bacterial Biotransformation [3] | Bacterial Biotransformation [4] | Bacterial Biotransformation [5] | Bacterial Biotransformation [6] | Bacterial Biotransformation [7] | Bacterial Biotransformation [8] | Bacterial Biotransformation [9] | Bacterial Biotransformation [10] | Bacterial Biotransformation [11] | Bacterial Biotransformation [12] | Bacterial Biotransformation [13] | Bacterial Biotransformation [14] | Bacterial Biotransformation [15] | Bacterial Biotransformation [16] | Bacterial Biotransformation [17] | Bacterial Biotransformation [18] | Bacterial Biotransformation [19] | Bacterial Biotransformation [20] | Structure (SMILES) |
| --- | --- | --- | --- | --- | --- | --- | --- | --- | --- | --- | --- | --- | --- | --- | --- | --- | --- | --- | --- | --- |
| Compound metabolized | Compound metabolized | Compound metabolized | Compound metabolized | Compound metabolized | Compound metabolized | Compound metabolized | Compound metabolized | Compound metabolized | Compound metabolized | Compound metabolized | Compound metabolized | Compound metabolized | Compound metabolized | Compound metabolized | Compound metabolized | Compound NOT metabolized | Compound metabolized | Compound metabolized | Compound metabolized | CC(C(=O)O)c1ccc2c(c1)Cc1cccnc1O2 (stereo not given) [PRANOPROFEN] |
| Compound NOT metabolized | Compound NOT metabolized | Compound NOT metabolized | Compound NOT metabolized | Compound NOT metabolized | Compound NOT metabolized | Compound NOT metabolized | Compound metabolized | Compound metabolized | Compound NOT metabolized | Compound metabolized | Compound NOT metabolized | Compound NOT metabolized | Compound NOT metabolized | Compound NOT metabolized | Compound NOT metabolized | Compound NOT metabolized | Compound NOT metabolized | Compound metabolized | Compound NOT metabolized | CCc1nc(N)nc(N)c1-c1ccc(Cl)cc1 [PYRIMETHAMINE] |
| Compound NOT metabolized | Compound NOT metabolized | Compound NOT metabolized | Compound NOT metabolized | Compound NOT metabolized | Compound NOT metabolized | Compound NOT metabolized | Compound NOT metabolized | Compound NOT metabolized | Compound NOT metabolized | Compound NOT metabolized | Compound NOT metabolized | Compound NOT metabolized | Compound NOT metabolized | Compound NOT metabolized | Compound NOT metabolized | Compound NOT metabolized | Compound NOT metabolized | Compound NOT metabolized | Compound NOT metabolized | COc1ccccc1OCC(O)CN1CCN(CC(=O)Nc2c(C)cccc2C)CC1 (stereo not given) [RANOLAZINE] |
| Compound NOT metabolized | Compound NOT metabolized | Compound NOT metabolized | Compound NOT metabolized | Compound NOT metabolized | Compound NOT metabolized | Compound metabolized | Compound NOT metabolized | Compound NOT metabolized | Compound NOT metabolized | Compound metabolized | Compound NOT metabolized | Compound NOT metabolized | Compound NOT metabolized | Compound NOT metabolized | Compound metabolized | Compound NOT metabolized | Compound NOT metabolized | Compound metabolized | Compound NOT metabolized | CCCc1nn(C)c2c(=O)[nH]c(-c3cc(S(=O)(=O)N4CCN(C)CC4)ccc3OCC)nc12.O=C(O)CC(O)(CC(=O)O)C(=O)O [SILDENAFIL CITRATE] |
| Compound metabolized | Compound metabolized | Compound metabolized | Compound metabolized | Compound metabolized | Compound metabolized | Compound metabolized | Compound NOT metabolized | Compound metabolized | Compound NOT metabolized | Compound NOT metabolized | Compound metabolized | Compound NOT metabolized | Compound NOT metabolized | Compound metabolized | Compound metabolized | Compound metabolized | Compound NOT metabolized | Compound metabolized | Compound NOT metabolized | COc1ccc2[nH]c([S+]([O-])Cc3ncc(C)c(OC)c3C)nc2n1 (stereo not given) [TENATOPRAZOLE] |
| Compound NOT metabolized | Compound NOT metabolized | Compound NOT metabolized | Compound NOT metabolized | Compound NOT metabolized | Compound NOT metabolized | Compound NOT metabolized | Compound NOT metabolized | Compound NOT metabolized | Compound NOT metabolized | Compound NOT metabolized | Compound NOT metabolized | Compound NOT metabolized | Compound NOT metabolized | Compound NOT metabolized | Compound NOT metabolized | Compound NOT metabolized | Compound NOT metabolized | Compound NOT metabolized | Compound NOT metabolized | CN1C(C(=O)Nc2ccccn2)=C(O)c2sccc2S1(=O)=O [TENOXICAM] |
| Compound metabolized | Compound NOT metabolized | Compound metabolized | Compound NOT metabolized | Compound NOT metabolized | Compound NOT metabolized | Compound NOT metabolized | Compound metabolized | Compound metabolized | Compound NOT metabolized | Compound metabolized | Compound NOT metabolized | Compound NOT metabolized | Compound metabolized | Compound metabolized | Compound NOT metabolized | Compound NOT metabolized | Compound NOT metabolized | Compound metabolized | Compound NOT metabolized | O=c1n(CCCN2CCN(c3cccc(Cl)c3)CC2)nc2ccccn12 [TRAZODONE] |
| Compound NOT metabolized | Compound metabolized | Compound metabolized | Compound metabolized | Compound metabolized | Compound NOT metabolized | Compound metabolized | Compound metabolized | Compound metabolized | Compound metabolized | Compound metabolized | Compound NOT metabolized | Compound NOT metabolized | Compound metabolized | Compound NOT metabolized | Compound metabolized | Compound NOT metabolized | Compound metabolized | Compound metabolized | Compound NOT metabolized | OC(CCN1CCCCC1)(c1ccccc1)C1CCCCC1 (stereo not given) [TRIHEXYPHENIDYL] |
